Measured values published in patent US6935334B2, “Enhancing therapeutic effectiveness of nitric oxide inhalation” (The General Hospital Corporation, priority 2000, dated 2005).

System: isolated-perfused mouse lungs preconstricted with U46619
Experiment: Pulmonary vasodilator response to NO inhalation in isolated, perfused and ventilated mouse lungs preconstricted with U46619
Type: in vivo
Settings: for pulmonary vasodilator response to subsequent ventilation with NO after prolonged NO breathing: prolonged breathing of 20 ppm NO
Experimental: Isolated, Perfused, and Ventilated Mouse Lung Model Mice were killed by intraperitoneal injection of pentobarbital sodium (200 mg/kg body weight) and placed in a 37° C. water-jacketed chamber (Isolated Perfused Lung Size 1 Type 839; Hugo-Sachs Elektronik, March-Hugstetten, Germany). The trachea was isolated and intubated, and the lungs were ventilated with 21% O2, 6% CO2 and 73% N2 using a volume-controlled ventilator (model 687; Harvard Apparatus, South Natick, Mass.) at a ventilatory rate of 85 breaths/min and 2 cm H2O end-expiratory pressure. The tidal volume was adjusted to provide a peak inspiratory pressure of 10 cm H2O throughout each study. The lungs were exposed via a midline sternotomy, and a ligataure was placaed around the aorticopulmonary outflow tract. After injection of 10 IU heparin into the right ventricle, the pulmonary artery was cannulated with a stainless steel cannula (1 mm ID) via the right ventricle. The pulmonary venous effluent was drained via a stainless steel cannula (1 mm ID) placed through the apex of the left ventricle across the mitral valve and into the left atrium. Left atrial pressure was maintained at 2 mmHg. Lungs were perfused at a constant flow (50 ml. kg body weight^−1. min^−1; Ismatec Reglo-Analogue roller pump; Laboratoriumstechnik GmbH, Wertheim-Mondfeld, Germany) with a non-recirculating system at 37° C. The perfusate used was Hanks' Balanced Salt Solution (GibcoBRL, Grand Island, N.Y.) containing 1.26 mM CaCl2, 5.33 mM KCl, 0.44 mM KH2PO4, 0.50 mM MgCl2, 0.41 mM MgSO4, 138.0 mM NaCl, 4.0 mM NaHCO3, 0.3 mM Na2HPO4, and 5.6 mM glucose. Bovine serum albumin, 5%, and dextran, 5% (both from Sigma Chemical Co., St. Louis, Mo.), were added to the perfusate to prevent pulmonary edema, in the isolated, perfused, and ventilated rat lung, essentially as described in Holzmann et al., 1996, Am. J. Physiol. 271:L981-L986. Indomethacin, […] (Sigma Chemical Co.), and 1 mM L-NAME (Sigma Chemical Co.) were added to the perfusate to inhibit endogenous prostaglandin and NO synthesis, respectively. Sodium bicarbonate was added to adjust the perfusate pH to 7.34-7.43.
Pulmonary artery pressure (PAP) and left atrial pressure were measured via saline-filled membrane pressure transducers (Argon, Athens, Tex.) connected to a side port of the inflow and outflow cannulae, respectively. Airway pressure (Paw) was measured using a differential pressure transducer (model MP-45-32-871; Validyne Engineering Corp., Northridge, Calif.) connected to the inspiratory limb just before the Y piece. Pressure transducers were connected to a biomedical amplifier (Hewlett Packard 7754B, Andover, Mass.), and data were recorded at 150 Hz on a personal computer using an analog-to-digital interface with a data acquisition system (DI-220; Dataq Instruments, Akron, Ohio). The system was calibrated before each experiment.
For NO inhalation, NO gas (800 or 80 ppm NO in nitrogen, Airco, Murray Hill, N.J.) was blended (Oxygen Blender; Bird Corporation, Palm Springs, Calif.) with oxygen, carbon dioxide, and nitrogen to achieve a final concentration of 21% O2, 6% CO2, and the desired NO concentration. NO and higher oxidative states of NO (NOx; CLD 700 AL; Eco Physics, Dürmten, Switzerland), oxygen (Hudson Ventronics Ddivision, Temecula, Calif.), and carbon dioxide (Datex CO2 monitor; Puritan-Bennett Corpration, Los Angeles, Calif.) concentrations were monitored continuously.
Pulmonary Vascular Response to NO inhalation after Lipopolysaccharide Challenge Wild-type mice and NOS2-deficient mice were injected intraperitoneally with 50 mg/kg body weight Escherichia coli 0111:B4 lipopolysaccharide (LPS; Difco Laboratories, Detroit, Mich.) dissolved in saline 16 h before isolated lung perfusion. This time point was chosen based on previous studies in rats (Holzmann et al., 1996, Am. J. Physiol. 271:L981-L986). Untreated wild-type and NOS2-deficient mice served as controls. […]

For `[N]=O` [NO, Nitric oxide], the “effect of NO inhalation on PAP” value (0.4, 4 and 40 ppm NO for 5 min each, all groups) was “decreased the PAP in a dose-dependent manner”, the “ΔPAP (change in PAP by inhaled NO as percentage of U46619-induced increase)” value (0.4 ppm NO, lipopolysaccharide-pretreated NOS2-deficient mice exposed to 20 ppm ambient NO for 16 h) was −24±4% and the “ΔPAP (change in PAP by inhaled NO as percentage of U46619-induced increase)” value (0.4 ppm NO, untreated control NOS2-deficient mice exposed to 20 ppm ambient NO for 16 h) was −42±4%. For the same compound, the “ΔPAP (change in PAP by inhaled NO as percentage of U46619-induced increase)” value (4 ppm NO, lipopolysaccharide-pretreated NOS2-deficient mice exposed to 20 ppm ambient NO for 16 h) was −39±5%, the “ΔPAP (change in PAP by inhaled NO as percentage of U46619-induced increase)” value (4 ppm NO, untreated control NOS2-deficient mice exposed to 20 ppm ambient NO for 16 h) was −58±4% and the “ΔPAP (change in PAP by inhaled NO as percentage of U46619-induced increase)” value (40 ppm NO, lipopolysaccharide-pretreated NOS2-deficient mice exposed to 20 ppm ambient NO for 16 h) was −55±3%. For the same compound, the “ΔPAP (change in PAP by inhaled NO as percentage of U46619-induced increase)” value (40 ppm NO, untreated control NOS2-deficient mice exposed to 20 ppm ambient NO for 16 h) was −62±5%, the “subsequent responsiveness to short-term inhaled NO after prolonged NO breathing” value (breathing 0.2 ppm NO for 16 h after lipopolysaccharide, NOS2-deficient mice) was “did not cause subsequent hyporesponsiveness” and the “subsequent vasodilator response to 0.4 ppm NO inhalation after prolonged NO breathing” value (breathing 2 ppm NO for 16 h after lipopolysaccharide, NOS2-deficient mice, compared with control mice) was “decreased the vasodilator response”. For the same compound, the “pulmonary vasodilator response to subsequent ventilation with NO after prolonged NO breathing” value (endotoxin-challenged NOS2-deficient mice) was “markedly impaired the pulmonary vasodilator response” and the “pulmonary vasodilator response to subsequent ventilation with NO after prolonged NO breathing” value (untreated wild-type or NOS2-deficient mice) was “does not impair the pulmonary vasodilator response”.
